Data published in patent publication US12571800B2, “Means and methods for treating angiogenesis-related diseases” (Heidelberg Biotech GmbH, priority 2011, dated 2026).

Key:
[1] = tested on: Fc-Endostatin-resistant LLC cells (Endo P4); assay: Fc-Endostatin-resistant LLC tumors, passage 5, IGF1R inhibitor; assay type: in vivo, C57B16 mice
Excerpt: Previously generated passage four Fc-Endostatin-resistant LLC cells (Endo P4, as described in the following examples) were subcutaneously injected to C57B16 mice.

Wild type LLC tumors = assay: Wild type LLC lung cancer model, prevention trial; assay type: in vivo, C57B16 mice
Description: Wild type LLC tumors (10.000 cells) were implanted s.c. in C57B16 mice. Tumors were sham treated (PBS, control), with the reference FN-mimetic-peptide (“FN-Motif”) containing only the “[…]” sequence (SEQ ID NO: 8) or with murine Superstatin (SEQ ID NO: 7) at the dose of 50 μg peptide in 100 μl PBS every 12 h s.c. (n: 5 in each group). Treatment was started 4 days after tumor implantation (“prevention trial”) and continued for 24 days. […] Tumor size reaching 1000 mm^2 was considered as death event in the Kaplan-Meier analysis.
Tumors were sham treated (PBS), with the reference FN-mimetic-peptide containing only the “[…]” sequence (SEQ ID NO: 8; FN motif) or with murine Superstatin (SEQ ID NO: 7) at the dose of 50 μg peptide in 100 μl PBS every 12 h s.c. (n: 5 in each group). Treatment was started 4 days after tumor implantation (“prevention trial”) and continued for 24 days. […] Tumor size reaching 1000 mm^2 was considered as death event in the Kaplan-Meier analysis.

LLC FN −/− tumor cells = assay: Fibronectin knockdown LLC tumor model; assay type: in vivo, C57B16 mice; conditions: treatment started day 4 post implantation; p<0.01 vs control or Fc-Endostatin
Excerpt: In contrast, the Superstatin peptide (SEQ ID NO: 7) exerts potent tumor growth inhibition in FN −/− LLC tumors growing s.c. in C57B16 mice.
Once the efficacy of the Superstatin peptide (SEQ ID NO: 7) was confirmed, the inventors moved toward the second strategy to validate the proposed concept that FN signaling is critical for oligomeric NC-1 to exert their anti-angiogenic and anti-tumoral effects. […] LLC FN −/− tumor cells (100.000) were implanted in C57B16 mice and treatment with dimeric murine Fc-Endostatin vs. Superstatin was started on day 4 post implantation. Knockdown of FN rendered LLC tumors resistant to oligomeric NC-1 (Fc-Endostatin).

VEGF = molecular target: T1, VEGF (Homo sapiens, UniProt P15692); assay: Competition with VEGF-ED-dimer (Fc-Endostatin) binding; conditions: preliminary data
T1 sequence (P15692 207-395 limits assumed): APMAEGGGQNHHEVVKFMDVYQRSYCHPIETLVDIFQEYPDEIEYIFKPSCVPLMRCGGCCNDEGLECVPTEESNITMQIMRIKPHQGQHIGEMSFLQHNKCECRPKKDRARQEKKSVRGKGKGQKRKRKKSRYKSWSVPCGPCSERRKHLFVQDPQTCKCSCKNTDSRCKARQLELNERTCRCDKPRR
Excerpt: The first approach was to engineer a minimal peptide sequence that would mimic the key effects of the ED-FN complex. […] Preliminary data by the present inventors indicate that this region itself may be capable of binding to VEGF and that the two histidines (Zinc binding domain) in this peptide sequence may be critical for VEGF binding. […] On the other hand, fibronectin contains two active motifs that are critical for its binding to ITGA5B1, i.e. a PHSRN-(SEQ ID NO:20) and a RGD-dependent motif.

fibronectin [2] = molecular target: T2, fibronectin (Homo sapiens, UniProt P02751); assay: Elisa, binding to fibronectin; conditions: proteins coated at 10 μg/ml; fibronectin as ligand at the same concentration
T2 sequence (P02751 32-2477): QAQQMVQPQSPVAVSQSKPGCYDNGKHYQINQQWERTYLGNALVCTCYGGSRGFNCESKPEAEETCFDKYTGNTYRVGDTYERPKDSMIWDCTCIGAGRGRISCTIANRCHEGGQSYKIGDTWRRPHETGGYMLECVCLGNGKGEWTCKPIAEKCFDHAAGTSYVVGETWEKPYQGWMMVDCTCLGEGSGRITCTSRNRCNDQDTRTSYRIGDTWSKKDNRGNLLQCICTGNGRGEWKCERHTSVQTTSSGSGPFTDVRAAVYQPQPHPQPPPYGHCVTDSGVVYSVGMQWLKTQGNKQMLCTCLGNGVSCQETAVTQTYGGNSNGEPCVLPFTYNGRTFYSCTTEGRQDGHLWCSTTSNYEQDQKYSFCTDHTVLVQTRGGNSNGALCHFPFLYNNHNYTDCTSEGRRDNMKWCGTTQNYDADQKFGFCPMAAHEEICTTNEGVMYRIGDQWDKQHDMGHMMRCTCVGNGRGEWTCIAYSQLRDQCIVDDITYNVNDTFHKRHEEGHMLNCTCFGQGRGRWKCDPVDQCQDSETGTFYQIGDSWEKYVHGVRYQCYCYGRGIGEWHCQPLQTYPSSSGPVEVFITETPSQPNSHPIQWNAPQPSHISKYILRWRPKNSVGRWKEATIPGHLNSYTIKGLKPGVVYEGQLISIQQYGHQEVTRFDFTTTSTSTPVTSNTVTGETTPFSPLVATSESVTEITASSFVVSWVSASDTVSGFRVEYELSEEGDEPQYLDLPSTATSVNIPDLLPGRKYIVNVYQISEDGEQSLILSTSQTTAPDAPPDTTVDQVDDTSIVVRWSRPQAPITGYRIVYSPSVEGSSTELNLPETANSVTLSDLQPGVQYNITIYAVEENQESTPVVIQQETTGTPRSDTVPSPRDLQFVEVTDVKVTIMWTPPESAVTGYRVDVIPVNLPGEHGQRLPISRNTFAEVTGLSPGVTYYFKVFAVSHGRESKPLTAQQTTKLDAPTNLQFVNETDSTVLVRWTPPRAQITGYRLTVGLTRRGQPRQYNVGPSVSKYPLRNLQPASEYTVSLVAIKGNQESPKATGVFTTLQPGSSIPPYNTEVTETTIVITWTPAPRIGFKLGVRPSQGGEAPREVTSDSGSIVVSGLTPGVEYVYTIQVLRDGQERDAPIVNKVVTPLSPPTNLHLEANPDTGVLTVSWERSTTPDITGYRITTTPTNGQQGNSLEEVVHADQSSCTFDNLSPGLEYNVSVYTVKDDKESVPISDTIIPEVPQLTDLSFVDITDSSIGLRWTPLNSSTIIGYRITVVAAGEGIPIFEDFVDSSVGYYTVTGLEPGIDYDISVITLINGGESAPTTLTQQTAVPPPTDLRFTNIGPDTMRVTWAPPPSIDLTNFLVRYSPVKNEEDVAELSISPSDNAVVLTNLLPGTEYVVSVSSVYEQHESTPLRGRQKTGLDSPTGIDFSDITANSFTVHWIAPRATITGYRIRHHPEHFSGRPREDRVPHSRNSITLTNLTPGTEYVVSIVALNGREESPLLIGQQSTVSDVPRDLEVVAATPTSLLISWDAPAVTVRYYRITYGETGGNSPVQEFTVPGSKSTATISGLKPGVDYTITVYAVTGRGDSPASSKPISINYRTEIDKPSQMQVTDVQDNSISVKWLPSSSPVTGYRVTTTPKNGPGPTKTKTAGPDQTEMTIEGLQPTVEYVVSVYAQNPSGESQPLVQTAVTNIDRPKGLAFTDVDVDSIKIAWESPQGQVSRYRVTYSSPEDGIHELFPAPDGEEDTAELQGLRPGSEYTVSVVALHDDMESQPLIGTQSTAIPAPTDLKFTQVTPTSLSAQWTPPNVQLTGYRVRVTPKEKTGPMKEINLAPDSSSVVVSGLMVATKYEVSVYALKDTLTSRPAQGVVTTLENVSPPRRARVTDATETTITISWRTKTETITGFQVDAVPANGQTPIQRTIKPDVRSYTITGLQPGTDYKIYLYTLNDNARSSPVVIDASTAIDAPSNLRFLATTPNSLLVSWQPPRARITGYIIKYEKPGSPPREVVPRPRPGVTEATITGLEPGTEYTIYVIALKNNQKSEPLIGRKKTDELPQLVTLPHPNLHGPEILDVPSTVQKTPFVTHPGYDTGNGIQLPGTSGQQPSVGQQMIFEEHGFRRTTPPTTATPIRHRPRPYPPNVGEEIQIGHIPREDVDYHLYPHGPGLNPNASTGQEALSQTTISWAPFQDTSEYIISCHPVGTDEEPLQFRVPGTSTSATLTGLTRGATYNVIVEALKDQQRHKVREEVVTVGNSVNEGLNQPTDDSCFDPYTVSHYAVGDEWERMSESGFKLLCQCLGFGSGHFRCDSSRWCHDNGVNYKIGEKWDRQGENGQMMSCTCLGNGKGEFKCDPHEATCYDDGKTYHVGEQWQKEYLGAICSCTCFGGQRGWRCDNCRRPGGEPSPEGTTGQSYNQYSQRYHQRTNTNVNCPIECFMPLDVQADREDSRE
Description: Coating of proteins were done in PBS at concentration of 10 μg/ml. Fibronectin served as a ligand at the same concentration. All buffers contained 2% BSA, 0.1% Tween-20.
Three protein constructs human Fc (control), dimeric human (h)Fc-Endostatin and hFc-VEGF were employed. […] Artificial endostatin dimer was generated by introducing a single mutation in amino acid position 7 of endostatin (changing glutamine to cysteine) in the recombinant Fc-endostatin. Upon digestion of this mutant protein by enterokinase, endostatin dimer is produced, linked by a disulfide bond (Kuo et al., loc. cit.).

fibronectin [3] = molecular target: T2, fibronectin; assay: Biacore (SPR) equilibrium binding constants to fibronectin; conditions: fibronectin 0.78 nM-100 nM over immobilized protein; values only in FIG. 1C
Description: Fibronectin samples were prepared by serial dilution into 0.01 M Hepes, pH 7.4, 0.15 M NaCl, 0.05% Surfactant containing 1 mg/ml BSA in the range 0.78 nM-100 nM and flowed over control and derivatized surfaces for three minutes at a flow-rate of 60 μl/min. Dissociation phases were monitored for 5 minutes. Zero concentration blank buffer cycles were included as negative control samples. Sensor surfaces were regenerated using a 1 minute injection of 1 M ethanolamine, pH 8.5 following each interaction analysis cycle. Non-specific binding effects to sensor surface CM4 were not observed. Calculated ka, kd and KD are shown. Different curves correspond to different concentrations of fibronectin.
1.3 Surface Plasmon Resonance (SPR) binding assays. This analysis provides for a unique method for measuring equilibrium constants between two binding partners. It is able to evaluate the kinetics of an interaction by recording the rates of complex formation (ka) and dissociation (kd) followed by employing a software which determines the values of these two parameters. Equilibrium constant (KD) is obtained by calculating the ration of kd/ka Human VEGF (R&D), endostatin, endostatin dimer and human NC-1 (hNC-1) were diluted to 50 μg/ml in 10 mM Sodium Acetate, pH 5.5 and immobilized onto series S sensor chip(s) CM4 via a standard N-ethyl-N′-(dimethyl-aminopropyl)carbodiimide/N-hydroxysuccinimide (EDC/NHS) amine coupling procedures. Control surfaces were prepared similarly without protein derivatization and utilized as a reference surface for compound binding experiments.
Binding measurements were performed using a Biacore™ (GE Healthcare, Uppsala, Sweden) instrument which employs surface plasmon resonance to detect and monitor molecular interactions.
Data analysis was carried out using Biacore T100 evaluation software v1.1.1. Data were prepared by subtraction of reference surface data and blank buffer sample data, a procedure commonly referred to as ‘double referencing’ and fitted to a 1:1 langmuir binding model.
In order to measure equilibrium binding constants for the above proteins, a Biacore system was employed. […] Fc-endostatin imposes a dimeric structure on the two molecules of endostatin at the C-terminus of Fc dimer.

[4] = cited from earlier work
[5] = in vivo; cited from earlier work
[6] = tested on: human melanoma cancer cells (A2058); assay: A2058 human melanoma tumors in nude mice; assay type: in vivo; conditions: end of experiment; s.c. once a day; hNC-1 100 μg/mouse, endostatin 100 and 500 μg/mouse
Description: 4-6 tumor-bearing nude mice in each group were subcutaneously (s.c.) treated with hNC-1 (100 μg/mouse once a day), clinical-grade endostatin (100 and 500 μg/mouse once a day) or PBS. Treatment was stopped prior to the development of necrosis. Sites of injection were away from tumors. Tumor sizes and the ratio of treated/control (T/C) is shown.
1.4 Animal and tumor models. All animal procedures were carried out in compliance with Children's Hospital Boston guidelines Protocols were approved by the Institutional Animal Care and Use Committee. Eight-week-old male (24-27 g) nude/nude mice (Massachusetts General Hospital, Boston, MA) were used. Mice were acclimated, caged in groups of five in a barrier care facility, and fed animal chow and water ad libitum. Animals were euthanized by CO2 inhalation. Human melanoma cell line A2058 was used for animal studies. A suspension of 2×10^6 tumor cells in 0.1 ml of PBS was injected subcutaneously (s.c.) into the dorsa of mice at the proximal midline. Mice were weighed and tumors were monitored twice a week in two diameters with digital calipers. Tumor volumes were determined using a^2×b×0.52 (where a is the shortest and b is the longest diameter). Tumors were allowed to grow to ˜100 mm^3 and mice were randomized. Treatment was by bolus s.c. injections. After experiments were completed, tumors and organs were excised and fixed in either 4% paraformaldehyde or were snap frozen. Four to six mice were treated with each group.
2.6 hNC-1 suppresses tumor growth in vivo. In order to compare anti-tumor activities of NC-1 and endostatin, nude mice bearing human melanoma cell line A2058 were employed. Two doses of clinical grade endostatin differing by 5-fold in concentration of protein (low and high doses) were used. […] It cannot be ruled out the possibility that injected NC-1 becomes degraded upon entering the circulation.

α5β1 = α5β1 (Homo sapiens, UniProt P05556+P08648); assay: Direct binding to integrin α5β1 (Elisa, immunoprecipitation, cell adhesion); conditions: immunoprecipitation and cell adhesion assays
Chain of α5β1 (P08648 42-894 limits assumed): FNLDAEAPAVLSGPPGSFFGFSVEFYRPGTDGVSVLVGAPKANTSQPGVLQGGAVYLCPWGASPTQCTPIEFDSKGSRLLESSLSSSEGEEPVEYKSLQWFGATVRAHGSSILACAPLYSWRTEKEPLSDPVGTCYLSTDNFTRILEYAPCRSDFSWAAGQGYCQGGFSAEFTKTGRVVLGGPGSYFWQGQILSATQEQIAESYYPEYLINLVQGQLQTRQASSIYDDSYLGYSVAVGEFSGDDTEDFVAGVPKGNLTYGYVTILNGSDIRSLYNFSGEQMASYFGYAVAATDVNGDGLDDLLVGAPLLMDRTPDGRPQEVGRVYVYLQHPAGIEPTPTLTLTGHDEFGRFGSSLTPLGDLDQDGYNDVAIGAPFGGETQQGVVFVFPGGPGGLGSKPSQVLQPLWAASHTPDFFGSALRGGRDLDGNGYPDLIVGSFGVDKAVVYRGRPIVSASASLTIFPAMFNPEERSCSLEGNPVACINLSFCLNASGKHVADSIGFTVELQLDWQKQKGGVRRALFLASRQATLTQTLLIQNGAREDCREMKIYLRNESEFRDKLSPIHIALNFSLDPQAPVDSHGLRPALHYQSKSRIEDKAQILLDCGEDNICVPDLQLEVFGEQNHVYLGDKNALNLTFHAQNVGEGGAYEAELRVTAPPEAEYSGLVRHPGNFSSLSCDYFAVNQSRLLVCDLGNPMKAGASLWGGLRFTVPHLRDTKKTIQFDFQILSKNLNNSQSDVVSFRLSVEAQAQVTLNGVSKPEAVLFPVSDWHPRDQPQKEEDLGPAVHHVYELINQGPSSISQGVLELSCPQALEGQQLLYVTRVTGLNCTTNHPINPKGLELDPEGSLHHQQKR
Chain of α5β1 (P08648 895-1049 limits assumed): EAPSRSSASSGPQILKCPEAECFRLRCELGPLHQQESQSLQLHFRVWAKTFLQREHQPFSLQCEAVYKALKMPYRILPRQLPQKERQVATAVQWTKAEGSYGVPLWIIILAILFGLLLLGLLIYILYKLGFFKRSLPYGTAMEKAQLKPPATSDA
Chain of α5β1 (P05556 21-798): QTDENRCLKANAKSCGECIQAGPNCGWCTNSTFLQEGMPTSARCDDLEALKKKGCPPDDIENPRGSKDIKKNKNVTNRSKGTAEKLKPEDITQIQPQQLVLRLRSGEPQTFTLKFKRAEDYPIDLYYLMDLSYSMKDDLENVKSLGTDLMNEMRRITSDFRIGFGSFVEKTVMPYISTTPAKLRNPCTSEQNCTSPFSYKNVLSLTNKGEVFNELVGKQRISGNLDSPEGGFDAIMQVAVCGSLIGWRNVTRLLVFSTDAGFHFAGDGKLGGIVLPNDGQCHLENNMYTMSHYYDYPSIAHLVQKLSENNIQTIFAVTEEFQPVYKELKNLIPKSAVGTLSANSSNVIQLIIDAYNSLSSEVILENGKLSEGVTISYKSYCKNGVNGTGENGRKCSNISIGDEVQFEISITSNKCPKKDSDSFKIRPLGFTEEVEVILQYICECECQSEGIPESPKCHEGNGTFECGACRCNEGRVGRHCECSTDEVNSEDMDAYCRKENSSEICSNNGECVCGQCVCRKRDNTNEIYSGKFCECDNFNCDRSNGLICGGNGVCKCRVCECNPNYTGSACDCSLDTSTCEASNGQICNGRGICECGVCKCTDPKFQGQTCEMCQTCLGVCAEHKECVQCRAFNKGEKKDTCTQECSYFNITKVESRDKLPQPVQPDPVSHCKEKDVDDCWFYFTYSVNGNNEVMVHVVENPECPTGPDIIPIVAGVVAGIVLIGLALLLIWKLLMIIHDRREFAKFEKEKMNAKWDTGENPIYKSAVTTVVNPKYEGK
Excerpt: Endostatin binding to two integrins αvβ3 and α5β1 was first reported in 2001 (Rehn et al. 2001, PNAS 98, 1024). Presumably, such a binding inhibits interactions of fibronectin with these integrins. […] Endostatin lacks the sequence RGD. Consequently, such a binding must be mediated by other amino acids on endostatin.

[7] = 50 μg peptide every 12 h s.c., day 4 on for 24 days

Which “tumor growth, sequential IGF1R inhibition” value ([1]; 20 mg/kg IP, sequential to mFc-Endo) does the source give for `COc1cc([C@@H]2c3cc4c(cc3[C@H](O)[C@H]3COC(=O)[C@@H]23)OCO4)cc(OC)c1OC` [PPP, cyclolignan picropodophyllin] here?
Its value is “inhibited tumor growth”.

And the “tumor growth, concurrent administration” value ([1]; concurrent with mFc-Endo)?
Its value is “only partially reversed the enhanced growth kinetic”.

And the “protein expression in passage 5 LLC tumors (Western blot)” value ([1]; mouse, in vivo)?
The value was “partially reversed this phenotype”.

With “FN-Motif: LYAVTGRGDSPASSK (SEQ ID NO: 8; same sequence as SEQ ID NO: 11) (listed as Mus musculus) [reference compound]” as the molecule, how does the tumor growth (Wild type LLC tumors; [7]) read?
Its tumor growth is “no significant improvement in prevention of tumor growth”.

What does the source list for “Superstatin: HTHQDFQPVLHLVLYAVTGRGDSPASSK (SEQ ID NO: 7), NC1-ED Motif-FN-Motif hybrid (listed as Mus musculus)”?
tumor growth in FN −/− LLC tumors (LLC FN −/− tumor cells): significantly inhibited tumor growth; tumor growth (Wild type LLC tumors; [7]): potently inhibit tumor growth; survival (Kaplan-Meier) as compared to control (Wild type LLC tumors; 50 μg peptide every 12 h s.c., day 4 on for 24 days, p<0.03 by log-rank test): significantly prolonged survival; tumors growing during the treatment period (Wild type LLC tumors; n: 5 in each group): only a single tumor grew

Which “competition with VEGF-ED-dimer (Fc-Endostatin) binding” value (VEGF) does the source give for “mP1-H1/3A: ATAQDFQPVLHLVALNTPLSGGMRGIR (SEQ ID NO: 19) (mP1-H1/3A)” here?
Its value is “failed to compete”.

Which “binding to fibronectin (Elisa)” value (fibronectin [2]) does the source give for VEGF [reference compound] here?
The value was “bound fibronectin”.

What about the “equilibrium binding constant to fibronectin (Biacore)” value (shortened to “equilibrium binding constant”) (fibronectin [3]) of the same molecule?
Its value is “High affinity constants”.

B1: endostatin: 183-amino acid proteolytic cleavage fragment corresponding to the C-terminus of collagen 18 (protein, UniProt P39060 1572-1754, looked up)
Endostatin: HSHRDFQPVLHLVALNSPLSGGMRGIRGADFQCFQQARAVGLAGTFRAFLSSRLQDLYSIVRRADRAAVPIVNLKDELLFPSWEALFSGSEGPLKPGARIFSFDGKDVLRHPTWPQKSVWHGSDPNGRRLTESYCETWRTEAPSATGQASSLLGGRLLGQSAASCHHAYIVLCIENSFMTASK
modifications: Endostatin
For B1, which “anti-tumor activity in clinical trials” value ([4]; in vivo) is on record?
The value was “did not demonstrate substantial endostatin anti-tumor activity”.

What about the “safety in clinical trials” value ([4]; variety of dose schedules) of the same molecule?
Its value is “very safe drug”.

And the half-life in circulation [5]?
Its half-life in circulation is “very short”.

And the “inhibition of tumor growth” value [6]?
Its value is 48%.

And the “direct binding to α5β1” value (α5β1)?
Its value is “without success”.

What about the “binding to fibronectin (Elisa)” value (fibronectin [2]) of the same molecule?
Its value is “did not”.

And the “equilibrium binding constant” value (fibronectin [3])?
The value was “No binding was detected”.

B2: Endostatin dimer: disulfide-linked endostatin dimer, glutamine to cysteine at position 7, released from Fc-endostatin by enterokinase (protein, UniProt P39060 1572-1754, looked up, variant Q7C)
Endostatin: HSHRDFCPVLHLVALNSPLSGGMRGIRGADFQCFQQARAVGLAGTFRAFLSSRLQDLYSIVRRADRAAVPIVNLKDELLFPSWEALFSGSEGPLKPGARIFSFDGKDVLRHPTWPQKSVWHGSDPNGRRLTESYCETWRTEAPSATGQASSLLGGRLLGQSAASCHHAYIVLCIENSFMTASK
modifications: Endostatin disulfide-linked dimer
notes: disulfide-linked endostatin dimer, glutamine to cysteine at position 7, released from Fc-endostatin by enterokinase
With B2 as the molecule, how does the “binding to fibronectin (Elisa)” value (fibronectin [2]) read?
Its value is “bound fibronectin”.

And the “equilibrium binding constant” value (fibronectin [3])?
The value was “High affinity constants”.
